Values joined by “and” are separate entries in the source; they are usually repeats but may differ in a detail not shown here. Equal entries are not always repeated.
Test system: Polygonatum cirrhifolium Royle seeds
Assay: Induction of germination (hypocotyl emergence) on modified MS medium with GA3 at 30° C. in dark
Type: in vivo
Settings: modified MS culture medium; for Percent germination: mean ± S.E.
Description: Ripe purplish berries from plants grown in the wild were collected and dehydrated for 15 days at room temperature (29° C.±2° C.). Seeds were collected from dehydrated berries and washed in tap water with 1-2 drops of Tween-20™ for 2 hours and rinsed three times in distilled water. Seeds were then surface sterilized with 0.1% mercuric chloride (HgCl2) for 3 minutes. Mercuric chloride was removed by washing seeds four times in sterile distilled water. Sterilized, rinsed seeds were placed on semi-solid culture medium in sterile disposable plastic Petri plates (10 cm×2 cm). Macro and micro nutrients in the basal medium were that of Murashige and Skoog's (Murashige, T. and Skoog, F. […]. Physiol Plant 15: 433 -497) but modified to contain 2.2 g/L NH4NO3, 2.0 g/L KNO3, 0.44 g/l CaCl2.2H2O, 0.37 g/L MgSO4.7H20, 0.17 g/L KH2PO4, 37.25 mg/L Na2 EDTA, 27.8 mg/L FeSO4.7H20, 0.83 mg/L KI, 6.2 mg/L H3BO3, 22.3 mg/L MnSO4.4H20, 8.6 mg/L ZnSO4.7H20, 0.25 mg/L Na2 MoO4.2H20, 0.025 mg/L CuSO4.5H2O, 0.025 mg/L CoCl2.6H20. This medium was supplemented with 250 mg/L myo-inosital, 0.5 mgl/l nicotinic acid, 0.5 mg/L pyridoxine HCl, 3 mg/L thiamine HCl, 2 mg/L glycine, 30 g/L sucrose, 7.5 g/L agar and 2, 10, 25, and 50 mg/L gibberellic acid. The pH of the medium was adjusted to 5.8 before adding agar. Medium was sterilized at 121° C. (15 lb. psi pressure) for 20 minutes. […] Seeds with emerged hypocotyl were transferred under aseptic conditions to the above defined basal culture medium containing gibberellic acid at 5, 25, 50 and 100 mg/L. Transferred plants were incubated in an environment having 8-16-hr days under about 2000 lux of light and about 8-16-hr nights in total darkness at a constant temperature of 20° C. ([…]) and at 50-60% RH. Illumination was provided by 40-watt cool, white fluorescent tubes. Germination synchronization as indicated by differentiated epicotyl with emergent coleoptile and radicle was recorded on daily basis. Tables 1 and 2 show the induction of germination as indicated by the emergence of hypocotyl at temperature of 30° C. (±2° C.; dark; RH 50-60%) and diurnal temperature of 30/20° C. (±2° C.; dark; RH 50-60%). Experiment consisted of 4 treatments in the form of varying levels of GA3 (2, 10, 25 and 50 mg/L) supplemented to culture medium consisting of 2.2 g/L NH4NO3, 2.0 g/L KNO3, 0.44 g/l CaCl2.2H2O, 0.37 g/L MgSO4.7H20, 0.17 g/L KH2PO4, 37.25 mg/L Na2 EDTA, 27.8 mg/L FeSO4.7H20, 0.83 mg/L KI, 6.2 mg/L H3BO3, 22.3 mg/L MnSO4.4H20, 8.6 mg/L ZnSO4.7H20, 0.25 mg/L Na2 MoO4.2H20, 0.025 mg/L CuSO4.5H2O, 0.025 mg/L CoCl2.6H20, 250 mg/L myo-inositol, 0.5 mg/L nicotinic acid, 0.5 mg/L pyridoxine HCl, 3 mg/L thiamine HCl, 2 mg/L glycine, 30 g/L sucrose and 7.5 g/L agar. Each treatment consisted of 15 replicates with 5 seeds in each. These were incubated at a constant temperature of 30° C. under continuous darkness at a RH of 60%. With the increase in GA3 concentration, there is concomitant increase in germination (Table 1). Maximum germination of 98.53% was obtained at 25 mg/L of GA3. Germination extended from 24-61 days (maximum duration) at 2 mg/L of GA3 and 7-23 days (minimum duration) at 50 mg/L of GA3 respectively.

C=C1C[C@]23C[C@@]1(O)CC[C@H]2[C@@]12C=C[C@H](O)[C@@](C)(C(=O)O1)[C@H]2[C@@H]3C(=O)O [GA3, gibberellic acid]
Duration of germination (GA3 2 mg/L): 24 to 61 days | Percent germination (GA3 2 mg/L): 23.69 ± 7.04 % | Duration of germination (GA3 10 mg/L): 19 to 53 days | Percent germination (GA3 10 mg/L): 66.18 ± 4.77% | Duration of germination (GA3 25 mg/L): 11 to 30 days | Percent germination (GA3 25 mg/L): 98.53% and 98.53 ± 3.82% | Duration of germination (GA3 50 mg/L): 7 to 23 days | Percent germination (GA3 50 mg/L): 97.11 ± 4.01%

From patent publication US20030100109A1, “Methods and compositions for in vitro germination and propagation of polygonatum cirrhifolium royle” (priority 2001, published 2003)
